From patent US20260325533A1, “CDK INHIBITOR COMPOUNDS” (ALEKSIA THERAPEUTICS, INC., priority 2023, published 2026)
Like-named read-outs stand apart in the source and are kept apart here.

What was measured:
Type in all cases: biochemical
CDK4/CCND3 = CDK4/CCND3 (Homo sapiens, UniProt P11802); test: CDK4 homogeneous time-resolved fluorescence (HTRF) kinase assay; conditions: CDK4/CCND
Method in brief: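 CDK4/CCND3 at 1.5 nM was preincubated with compound for 20 min at 23 °C, then reacted for 60 min with 1 mM ATP and 50 nM ULight-4E-BP1 (Thr37/46) peptide. The reaction was stopped with EDTA, and phosphorylation was read by HTRF with a Eu-anti-phospho antibody. IC50 values came from 11-point half-log titrations, typically from 10 μM.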

CDK6/CCND1 = CDK6/CCND1 (Homo sapiens, UniProt Q00534); test: CDK6 homogeneous time-resolved fluorescence (HTRF) kinase assay; conditions: CDK6/CCND
Chain of CDK6/CCND1 (Q00534 whole entry): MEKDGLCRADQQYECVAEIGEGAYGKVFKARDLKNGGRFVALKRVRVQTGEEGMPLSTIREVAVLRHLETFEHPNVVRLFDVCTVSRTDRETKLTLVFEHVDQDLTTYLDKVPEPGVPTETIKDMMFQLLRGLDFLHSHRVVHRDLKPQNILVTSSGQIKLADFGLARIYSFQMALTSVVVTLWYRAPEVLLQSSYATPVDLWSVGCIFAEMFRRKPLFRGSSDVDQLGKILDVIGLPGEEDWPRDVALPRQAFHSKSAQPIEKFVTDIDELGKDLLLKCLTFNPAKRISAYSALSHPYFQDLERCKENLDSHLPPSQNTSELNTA
Chain of CDK6/CCND1 (P24385 whole entry partner): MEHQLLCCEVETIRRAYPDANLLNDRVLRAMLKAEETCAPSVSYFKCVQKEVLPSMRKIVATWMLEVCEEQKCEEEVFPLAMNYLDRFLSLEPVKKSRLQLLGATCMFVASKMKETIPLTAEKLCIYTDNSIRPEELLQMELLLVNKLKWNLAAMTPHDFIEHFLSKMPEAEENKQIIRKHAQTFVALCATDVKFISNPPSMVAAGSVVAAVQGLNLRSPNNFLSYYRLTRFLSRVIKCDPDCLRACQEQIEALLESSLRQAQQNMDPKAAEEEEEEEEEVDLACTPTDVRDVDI
Method in brief: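 Enzyme pre-incubated 20 min at 23 °C with compound, then reacted 60 min at 23 °C with 1 mM ATP and 50 nM ULight-4E-BP1 (Thr37/46) peptide; 1 nM enzyme, 1% DMSO. EDTA-stopped, Eu-anti-phospho antibody TR-FRET read (665 nm or 665/615 ratio); 11-point half-log titration from 10 μM gave IC50.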

CDK2/CCNE1 = CDK2/CCNE1 (Homo sapiens, UniProt P24941); test: CDK2 homogeneous time-resolved fluorescence (HTRF) kinase assay; conditions: CDK2/CCNE
Method in brief: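 3 nM CDK2/CCNE1 was preincubated with compound for 20 min at 23 °C in HEPES buffer (pH not stated), then reacted 60 min with 1 mM ATP and 50 nM ULight-4E-BP1 (Thr37/46) peptide. After EDTA stop, Eu-anti-phospho-4E-BP1 antibody (2 nM) was added for 60 min and TR-FRET read at 665 nm.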

CDK1/CCNB1 = CDK1/CCNB1 (Homo sapiens, UniProt P06493); test: CDK1 homogeneous time-resolved fluorescence (HTRF) kinase assay; conditions: CDK1/CCNB
Chain of CDK1/CCNB1 (P06493 whole entry): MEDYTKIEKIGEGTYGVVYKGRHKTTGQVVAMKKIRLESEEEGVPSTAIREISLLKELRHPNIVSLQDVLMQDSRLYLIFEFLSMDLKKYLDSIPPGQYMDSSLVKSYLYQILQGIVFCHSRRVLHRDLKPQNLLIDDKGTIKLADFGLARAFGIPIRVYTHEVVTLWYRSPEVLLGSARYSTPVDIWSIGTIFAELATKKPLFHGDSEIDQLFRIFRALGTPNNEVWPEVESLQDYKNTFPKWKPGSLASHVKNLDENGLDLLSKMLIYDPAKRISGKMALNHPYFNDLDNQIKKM
Chain of CDK1/CCNB1 (P14635 whole entry partner): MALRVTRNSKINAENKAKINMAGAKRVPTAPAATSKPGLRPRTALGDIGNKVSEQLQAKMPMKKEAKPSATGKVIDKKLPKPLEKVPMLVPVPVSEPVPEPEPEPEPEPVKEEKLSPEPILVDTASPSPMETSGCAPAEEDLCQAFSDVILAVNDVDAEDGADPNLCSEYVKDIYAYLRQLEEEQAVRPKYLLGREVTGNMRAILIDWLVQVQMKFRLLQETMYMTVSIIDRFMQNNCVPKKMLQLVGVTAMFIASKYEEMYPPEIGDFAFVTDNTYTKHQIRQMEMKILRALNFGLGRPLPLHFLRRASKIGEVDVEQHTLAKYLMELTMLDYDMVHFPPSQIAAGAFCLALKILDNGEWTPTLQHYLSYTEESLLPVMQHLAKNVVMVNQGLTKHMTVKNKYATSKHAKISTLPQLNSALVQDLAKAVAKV
Method in brief: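 0.5 nM CDK1/CCNB1 was preincubated 20 min at 23 °C with compound in HEPES pH-unspecified buffer (MgCl2, EGTA, DTT, Tween 20), then reacted 60 min with 1 mM ATP and 50 nM ULight-4E-BP1 (Thr37/46) peptide. EDTA-stopped reactions were detected with 2 nM Eu-anti-phospho antibody; IC50 from 11-point half-log titrations.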

[1] = >250 nM marked x, read-out: CDK4/CCND IC50 >250 nM
[2] = >250 nM marked x, read-out: CDK6/CCND IC50 >250 nM
[3] = >250 nM marked x, read-out: CDK2/CCNE IC50 >250 nM
[4] = >250 nM marked x, read-out: CDK1/CCNB IC50 >250 nM
[5] = 25-250 nM marked x, read-out: CDK6/CCND IC50 25-250 nM
[6] = x = IC50 >250 nM, read-out: CDK4/CCND IC50 (>250 nM column)
[7] = x = IC50 >250 nM, read-out: CDK6/CCND IC50 (>250 nM column)
[8] = x = IC50 25-250 nM, read-out: CDK2/CCNE IC50 (25-250 nM)
[9] = x = IC50 >250 nM, read-out: CDK1/CCNB IC50 (>250 nM column)
[10] = x = IC50 25-250 nM, read-out: CDK4/CCND IC50 (25-250 nM)
[11] = x = IC50 25-250 nM, read-out: CDK6/CCND IC50 (25-250 nM)
[12] = x = IC50 <25 nM, read-out: CDK2/CCNE IC50 (<25 nM)

Chain of CDK4/CCND3 (P11802 whole entry): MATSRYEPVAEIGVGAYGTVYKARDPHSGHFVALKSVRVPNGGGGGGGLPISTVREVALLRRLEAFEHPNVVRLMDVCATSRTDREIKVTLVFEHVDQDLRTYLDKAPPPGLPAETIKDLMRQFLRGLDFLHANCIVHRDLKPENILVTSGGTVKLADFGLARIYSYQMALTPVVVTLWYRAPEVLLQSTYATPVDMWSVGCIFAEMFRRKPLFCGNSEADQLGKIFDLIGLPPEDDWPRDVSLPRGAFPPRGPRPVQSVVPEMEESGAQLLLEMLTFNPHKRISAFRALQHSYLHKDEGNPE
Chain of CDK4/CCND3 (P30281 whole entry partner): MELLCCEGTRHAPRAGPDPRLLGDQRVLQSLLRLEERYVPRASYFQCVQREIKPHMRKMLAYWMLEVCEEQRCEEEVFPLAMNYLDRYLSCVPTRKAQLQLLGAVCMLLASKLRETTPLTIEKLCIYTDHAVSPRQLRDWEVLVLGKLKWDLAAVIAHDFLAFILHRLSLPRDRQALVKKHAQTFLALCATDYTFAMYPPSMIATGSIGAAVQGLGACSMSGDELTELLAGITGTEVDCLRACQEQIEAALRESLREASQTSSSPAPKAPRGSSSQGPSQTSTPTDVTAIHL

IC50 (CDK4/CCND3; [1]) [nM] | IC50 (CDK1/CCNB1; [4]) [nM] | IC50 (CDK4/CCND3; [6]) [nM] | IC50 (CDK6/CCND1; [7]) [nM] | IC50 (CDK1/CCNB1; [9]) [nM] | IC50 (CDK2/CCNE1; [12]) [nM] | Compound | other results
> 250 | > 250 | – | – | – | – | CS(=O)(=O)c1ccc(Nc2cc3c(C4CCN(S(=O)(=O)c5cccnc5)C4)nccc3cn2)cc1 (racemic) [Ex 238, N-(4-(methylsulfonyl)phenyl)-5-(1-(pyridin-3-ylsulfonyl)pyrrolidin-3-yl)-2,6-naphthyridin-3-amine] | IC50 (CDK6/CCND1; [2]): > 250 nM; IC50 (CDK2/CCNE1; [3]): > 250 nM
> 250 | > 250 | – | – | – | – | CS(=O)(=O)c1ccc(Nc2cc3c(C4CCN(S(=O)(=O)C5CC5)C4)nccc3cn2)cc1 (racemic) [Ex 239, 5-(1-(cyclopropylsulfonyl)pyrrolidin-3-yl)-N-(4-(methylsulfonyl)phenyl)-2,6-naphthyridin-3-amine] | IC50 (CDK6/CCND1; [2]): > 250 nM; IC50 (CDK2/CCNE1; [3]): > 250 nM
> 250 | > 250 | – | – | – | – | CS(=O)(=O)c1ccc(Nc2cc3c(C4=CC(O)CCC4)nccc3cn2)cc1 (racemic) [Ex 240, 3-(7-((4-(methylsulfonyl)phenyl)amino)-2,6-naphthyridin-1-yl)cyclohex-2-en-1-ol] | IC50 (CDK6/CCND1; [5]): 25 to 250 nM; IC50 (CDK2/CCNE1; 25-250 nM marked x, read-out: CDK2/CCNE IC50 25-250 nM): 25 to 250 nM
– | > 250 | – | – | – | – | CS(=O)(=O)c1ccc(Nc2cc3c(C#CC4CCC(C#N)CC4)nccc3cn2)cc1 (racemic) [Ex 252, 4-((7-((4-(methylsulfonyl)phenyl)amino)-2,6-naphthyridin-1-yl)ethynyl)cyclohexane-1-carbonitrile] | IC50 (CDK4/CCND3; 25-250 nM marked x, read-out: CDK4/CCND IC50 25-250 nM): 25 to 250 nM; IC50 (CDK6/CCND1; [5]): 25 to 250 nM; IC50 (CDK2/CCNE1; <25 nM, read-out: CDK2/CCNE IC50 <25 nM): < 25 nM
– | – | > 250 | > 250 | > 250 | – | N=S(=O)(c1ccc(Nc2cc3c(C#Cc4cccnc4N)nccc3cn2)cc1)C1CCC1 (racemic) [Ex 416, (4-((5-((2-aminopyridin-3-yl)ethynyl)-2,6-naphthyridin-3-yl)amino)phenyl)(cyclobutyl)(imino)-l6-sulfanone] | IC50 (CDK2/CCNE1; [8]): 25 to 250 nM
– | – | > 250 | > 250 | > 250 | – | CN=S(C)(=O)c1ccc(Nc2cc3c(-c4ccc5c(cnn5CC(O)(C(F)(F)F)C(F)(F)F)c4C)nccc3cn2)cc1 (racemic) [Ex 470, methyl(4-((5-(4-methyl-1-(3,3,3-trifluoro-2-hydroxy-2-(trifluoromethyl)propyl)-1H-indazol-5-yl)-2,6-naphthyridin-3-yl)amino)phenyl)(methylimino)-l6-sulfanone] | IC50 (CDK2/CCNE1; [8]): 25 to 250 nM
– | – | – | – | > 250 | < 25 | CCS(=N)(=O)c1ccc(Nc2cc3c(-c4ccc5c(cnn5CC(O)(C(F)(F)F)C(F)(F)F)c4C)nccc3cn2)cc1 (racemic) [Ex 473, ethyl(imino)(4-((5-(4-methyl-1-(3,3,3-trifluoro-2-hydroxy-2-(trifluoromethyl)propyl)-1H-indazol-5-yl)-2,6-naphthyridin-3-yl)amino)phenyl)-l6-sulfanone] | IC50 (CDK4/CCND3; [10]): 25 to 250 nM; IC50 (CDK6/CCND1; [11]): 25 to 250 nM
– | – | > 250 | > 250 | > 250 | < 25 | CS(=O)(=O)c1ccc(Nc2cc3c(C#CC(O)CO)nccc3cn2)cc1 (racemic) [Ex 477, 4-(7-((4-(methylsulfonyl)phenyl)amino)-2,6-naphthyridin-1-yl)but-3-yne-1,2-diol] | –
– | – | – | – | – | < 25 | CCS(=N)(=O)c1ccc(Nc2cc3c(C#Cc4ccc5oc(=O)[nH]c5c4)nccc3cn2)cc1 (racemic) [Ex 479, 5-((7-((4-(ethylsulfonimidoyl)phenyl)amino)-2,6-naphthyridin-1-yl)ethynyl)benzo[d]oxazol-2(3H)-one] | IC50 (CDK4/CCND3; [10]): 25 to 250 nM; IC50 (CDK6/CCND1; [11]): 25 to 250 nM; IC50 (CDK1/CCNB1; x = IC50 25-250 nM, read-out: CDK1/CCNB IC50 (25-250 nM)): 25 to 250 nM
– | – | > 250 | > 250 | > 250 | < 25 | CCS(=N)(=O)c1ccc(Nc2cc3c(C#Cc4ccc(=O)[nH]n4)nccc3cn2)cc1 (racemic) [Ex 485, 6-((7-((4-(ethylsulfonimidoyl)phenyl)amino)-2,6-naphthyridin-1-yl)ethynyl)pyridazin-3(2H)-one] | –
